Results as given in patent US7534766B2, “Glucuronide metabolites and epimers thereof of tigecycline” (Wyeth, priority 2004, dated 2009).
Read-outs that look alike come from different tables or passages of the source.

Assays:
[1] = Tigecycline metabolites identified in CD-1 mouse serum and urine and rabbit serum samples (LC/MS); assay type: in vivo
Protocol: The column temperature was 25° C. The flow rate was 0.2 mL/min. […] Gradient 1 was used for metabolite identification (qualitative analysis).
LC/MS analysis was conducted on extracts of serum and from CD-1 mice and rabbits, and on urine from CD-1 mice. The mass spectral data for tigecycline and its metabolites are discussed below.

[2] = male, human, in vivo
Protocol: (§1) An open-label, inpatient, multiple-dose tigecycline, single-dose [^14C]tigecycline metabolic disposition and mass balance study was performed in six healthy male volunteers. The clinical protocol called for twelve subjects. Of these twelve, six received the radioactive dose (subjects 1, 4, 5, 6, 7, and 8 with subject 8 later dropping out of the study.) Eligible subjects were selected based on inclusion/exclusion criteria, medical history, physical examination and additional procedures outlined in the study protocol. Each subject received a 100 mg loading dose on the morning of Day 1, followed by a 50 mg maintenance dose every 12 hours for an additional 5 doses. On the morning of study Day 4, six subjects received a single 50 mg dose of [^14C]tigecycline (50 μCi). Each tigecycline dose was administered via a 30-minute intravenous infusion.
(§2) Serum samples were collected for metabolite profiling prior to tigecycline dosing and 1, 4, 8, 24 and 48 hours following the [^14C]-labeled dose. For metabolite profiling, urine samples were collected at 0-4, 4-8, 8-24 and 24-48 hours and fecal samples were collected up to 48 hours following the [^14C]-labeled dose. Serum and urine samples, and fecal homogenates were shipped on dry ice to the Biotransformation Division of Drug Safety and Metabolism, Wyeth Research, Collegeville, Pa. The details of the sample collection and sample storage are described in the mass balance portion of the study. The 24-48 hour urine and fecal samples for subject #6 were incomplete since the subject withdrew from the study. While samples from this subject were used for metabolite profiling, the samples were not included in the mass balance calculations.
Urine samples for metabolite profiling were extracted, as discussed below, using a method previously developed and used for rat and dog urine samples. Urine samples that had been collected at various intervals up to 48 hours following the dose of [^14C]tigecycline were thawed on ice prior to extraction. Aliquots (1 mL) of the individual urine samples were transferred to clean tubes and 0.2 M EDTA, for a final concentration of 40 mM EDTA, was added. […] Samples were mixed, centrifuged and the supernatants analyzed for metabolites by HPLC radiochromatography with selected samples also analyzed by LC/MS.
HPLC analyses were performed using a Waters 2695 Alliance Separation Module (Waters Corp., Milford, Mass.), a Waters Model 2487 dual wavelength UV absorbance detector, set to monitor 350 nm, and was in-line with a Gilson 215 liquid handler (Gilson, Middleton, Wis.) equipped to collect fractions at 20 second intervals. Fractions were collected into 96-well deep well Luma plates and analyzed using TopCount NXT. The autosampler temperature was set to 4° C. […]

[3] = male, human, in vivo; remark: listed apart in the source
Protocol: as §1, §2
Individual fecal sample homogenates, prepared from each fecal sample collected up to 48 hours following the [^14C]-labeled tigecycline dose, that contained greater than 8000 dpm/g were analyzed for metabolite profiles. The preparation of the fecal sample homogenates is described in detail in the mass balance portion of the study. Briefly, fecal samples were homogenized with 3 to 4 volumes of ice-cold water by weight at ABC Laboratories (Columbia, Mo.) and shipped frozen to the Biotransformation Division of Drug Safety and Metabolism, Wyeth Research, Collegeville, Pa. For the extraction of radioactivity, fecal homogenates were thawed on ice and aliquots (approximately 1 g) transferred to 15 mL tubes. Three volumes of acetone were added and the samples mixed for 1 minute using a multi-tube vortex mixer. Samples were centrifuged for 15 minutes at 2500 rpm and 4° C. in a Sorvall Super T21 centrifuge. The supernatant was transferred to a fresh tube and the pellet re-suspended with 1 mL of water and 80 μL of 0.5 M EDTA, and re-extracted as described above. The pellet was re-extracted in this manner a total of three times and the supernatants pooled. The supernatant was evaporated to dryness under a stream of nitrogen using a Turbovap Model LV. The residue was re-suspended in 500 μL of water and centrifuged for 10 minutes at 14,000 rpm and room temperature using a Model 5415C Eppendorf centrifuge. The supernatant was transferred to an HPLC vial, assayed for radioactivity and for metabolite profiles using HPLC with radioactivity detection. Selected samples were also analyzed by LC/MS.
HPLC analyses were performed using a Waters 2695 Alliance Separation Module (Waters Corp., Milford, Mass.), a Waters Model 2487 dual wavelength UV absorbance detector, set to monitor 350 nm, and was in-line with a Gilson 215 liquid handler (Gilson, Middleton, Wis.) equipped to collect fractions at 20 second intervals.

| Species and matrix in which identified ([1]; in vivo, iv) | percent of the fecal radioactivity [3] | Relative Distribution (%) of radioactivity in extracted fecal homogenate ([3]; 24.2 h) [%] | Relative Distribution (%) of radioactivity in extracted fecal homogenate ([3]; 24.6 h) [%] | Relative Distribution (%) of radioactivity in extracted fecal homogenate ([3]; 25.2 h) [%] | Relative Distribution (%) of radioactivity in extracted fecal homogenate ([3]; 29.8 h) [%] | Relative Distribution (%) of radioactivity in extracted fecal homogenate ([3]; 30 h) [%] | Relative Distribution (%) of radioactivity in extracted fecal homogenate ([3]; 32 h) [%] | Relative Distribution (%) of radioactivity in extracted fecal homogenate ([3]; 34.2 h) [%] | Relative Distribution (%) of radioactivity in extracted fecal homogenate ([3]; 41.8 h) [%] | percent of the radioactivity in urine [2] | SMILES | Estimated Concentrations in fecal homogenate ([3]; 24.2 h) | Estimated Concentrations in fecal homogenate ([3]; 24.6 h) | Estimated Concentrations in fecal homogenate ([3]; 25.2 h) | Estimated Concentrations in fecal homogenate ([3]; 29.8 h) | Estimated Concentrations in fecal homogenate ([3]; 30 h) | Estimated Concentrations in fecal homogenate ([3]; 32 h) | Estimated Concentrations in fecal homogenate ([3]; 34.2 h) | Estimated Concentrations in fecal homogenate ([3]; 41.8 h) | other results |
| --- | --- | --- | --- | --- | --- | --- | --- | --- | --- | --- | --- | --- | --- | --- | --- | --- | --- | --- | --- | --- |
| R-S, M-S, M-U | 10-26% | 23.5 | 9.8 | 10.4 | 21.6 | 13.3 | 10.4 | 26.3 | 21.3 |  | CN(C)c1cc(NC(=O)CNC(C)(C)C)c(O)c2c1C[C@H]1C[C@H]3C(N(C)C)C(O[C@@H]4O[C@H](C(=O)O)[C@@H](O)[C@H](O)[C@H]4O)=C(C(N)=O)C(=O)[C@@]3(O)C(O)=C1C2=O (stereo in doubt) [Metabolite M7, tigecycline glucuronide] | 0.51 mg-Tigecycline Equivalents/Collection | 0.40 mg-Tigecycline Equivalents/Collection | 1.1 mg-Tigecycline Equivalents/Collection | 2.6 mg-Tigecycline Equivalents/Collection | 1.2 mg-Tigecycline Equivalents/Collection | 0.49 mg-Tigecycline Equivalents/Collection | 1.1 mg-Tigecycline Equivalents/Collection | 1.8 mg-Tigecycline Equivalents/Collection | percent of the urinary radioactivity [2]: approximately 20% |
|  | 4-14% | 13.9 | 6.2 | 7.5 | 4.1 | 5.9 | 4.2 | 3.9 | 6.7 | 15-37% | CC(C)(C)NCC(=O)O [Metabolite M3a, t-butylaminoacetic acid] | (0.30) mg-Tigecycline Equivalents/Collection | (0.25) mg-Tigecycline Equivalents/Collection | (0.81) mg-Tigecycline Equivalents/Collection | (0.49) mg-Tigecycline Equivalents/Collection | (0.55) mg-Tigecycline Equivalents/Collection | (0.20) mg-Tigecycline Equivalents/Collection | (0.17) mg-Tigecycline Equivalents/Collection | (0.56) mg-Tigecycline Equivalents/Collection |  |
| R-S, M-S, M-U | up to 9% | 5.8 |  | 4.1 | 6.8 | 5.6 | 3.0 | 7.5 | 8.9 | less than 1% | CN(C)c1cc(NC(=O)CNC(C)(C)C)c(O)c2c1C[C@H]1C[C@H]3[C@@H](N(C)C)C(O[C@@H]4O[C@H](C(=O)O)[C@@H](O)[C@H](O)[C@H]4O)=C(C(N)=O)C(=O)[C@@]3(O)C(O)=C1C2=O [Metabolite M6, epimer of tigecycline glucuronide] | 0.13 mg-Tigecycline Equivalents/Collection |  | 0.44 mg-Tigecycline Equivalents/Collection | 0.82 mg-Tigecycline Equivalents/Collection | 0.52 mg-Tigecycline Equivalents/Collection | 0.14 mg-Tigecycline Equivalents/Collection | 0.32 mg-Tigecycline Equivalents/Collection | 0.75 mg-Tigecycline Equivalents/Collection |  |
|  | 28-51% | 44.9 | 47.7 | 39.9 | 39.1 | 48.3 | 50.7 | 32.8 | 28.1 |  | CN(C)c1cc(NC(=O)CNC(C)(C)C)c(O)c2c1C[C@H]1C[C@H]3[C@H](N(C)C)C(O)=C(C(N)=O)C(=O)[C@@]3(O)C(O)=C1C2=O [Tigecycline] | 0.97 mg-Tigecycline Equivalents/Collection | 2.0 mg-Tigecycline Equivalents/Collection | 4.3 mg-Tigecycline Equivalents/Collection | 4.7 mg-Tigecycline Equivalents/Collection | 4.5 mg-Tigecycline Equivalents/Collection | 2.4 mg-Tigecycline Equivalents/Collection | 1.4 mg-Tigecycline Equivalents/Collection | 2.4 mg-Tigecycline Equivalents/Collection | Species and matrix in which identified ([1]; single IV tigecycline dose, LC/MS): R-S, M-S, M-U; percent of fecal radioactivity after correcting for the epimer formed during the extraction process [3]: 39-66% |
